Results taken from PMC11558998, “Lipophilic bisphosphonates reduced cyst burden and ameliorated hyperactivity of mice chronically infected with Toxoplasma gondii” (mBio, 2024).

Assays:
[1] = system: T. gondii Pru strain (type II) tachyzoites; assay: In vitro growth inhibition of red fluorescent tachyzoites, Pru strain; type: cell-based, Toxoplasma gondii; conditions: tachyzoite growth
Protocol: (§1) Experiments with T. gondii tachyzoites were carried out with parasites expressing a td-Tomato RFP ([48], [49]). For drug testing and growth assays, parasites were purified by passing them through a 25-gauge needle, followed by filtration through a 5 µm filter. Human fibroblasts were cultured in 96-well black plates for 48 (hTERT) or 120 (HFF) hours prior to the addition of 4,000 (type I) or 8,000 (type II) fluorescent tachyzoites per well. Fluorescence values were measured for up to 7 days (type I) and 21 days (type II), and both excitation (544 nm) and emission (590 nm) were read from the bottom of the plates in a Molecular Devices plate reader ([36]). The EC50s were calculated using GraphPad Prism software.

[2] = system: T. gondii Me49 strain (type II) tachyzoites; assay: In vitro growth inhibition of red fluorescent tachyzoites, Me49 strain; type: cell-based; conditions: Toxoplasma gondii, tachyzoite growth
Protocol: as §1

T. gondii ATQ^R R4 = assay: In vitro growth inhibition, atovaquone resistant strain R4; type: cell-based; conditions: Toxoplasma gondii, read-out: EC50 ATQ^R R4, atovaquone resistant strain R4
Protocol: as §1

T. gondii ATQ^R R5 = assay: In vitro growth inhibition, atovaquone resistant strain R5; type: cell-based; conditions: Toxoplasma gondii, read-out: EC50 ATQ^R R5
Protocol: as §1

[3] = system: in vitro differentiated Me49 bradyzoites (cysts); assay: Vacuole size of in vitro differentiated Me49 cysts (DBA/SAG1 IFA); type: cell-based, Toxoplasma gondii; conditions: positive control, concentration not stated in the sentence (Fig. 1C: 3x and 5x EC50)
Protocol: (§2) Type II Me49 or Pru was differentiated using compound 1 as previously described ([50]). Confluent HFF monolayers on glass coverslips (preincubated for 2 hours with 3 µM compound 1, as described previously) were infected with 5 × 10^3 tachyzoites of the ME49 or Pru (type 2) or EGS (type I/III) strain (no compound 1 for EGS). The cells were allowed to grow and differentiate in a 37°C incubator with ambient CO2 for 3 days (EGS was allowed to spontaneously differentiate for 4 days). […] After 7 days (Me49) or 8 days (EGS) of incubation, the cells were fixed with 3% paraformaldehyde for 10 minutes, permeabilized with 0.25% Triton X-100 for 10 minutes, and then blocked in 3% bovine serum albumin for 1 hour. The coverslips were then incubated in DBA rhodamine (for Me49)([51]) or DBA lectin (a kind gift from Diego Huet for EGS) and anti-SAG1 rat antibody (a kind gift from Vern Carruthers) for 2 hours. Then, the secondary anti-rat 488 was used to visualize the SAG1 antibody. The cells were then mounted onto microscope slides with fluoromount and DAPI (4′,6-diamidino-2-phenylindole). The slides were placed in the fridge for a minimum of 24 hours before imaging on a Delta Vision microscope. The vacuole sizes were calculated using ImageJ software.

[4] = system: in vitro derived Pru cysts; assay: Vacuole size of in vitro derived Pru cysts; type: cell-based, Toxoplasma gondii
Protocol: as §2

[5] = system: type I/III EGS strain cysts; assay: Vacuole size of spontaneously formed EGS cysts; type: cell-based, Toxoplasma gondii; conditions: EGS spontaneous cysts, 3x EC50, 4 days
Protocol: as §2

[6] = system: ex vivo bradyzoites of Me49-RFP from brains of chronically infected mice; assay: Ex vivo bradyzoite growth assay, Me49-RFP; type: cell-based, Toxoplasma gondii; conditions: inhibitors present 14 days, 3x EC50
Protocol: (§3) Brains of chronically infected mice were collected, homogenized with seven strokes in a glass homogenizer, and then enumerated on a Delta Vision microscope [protocol adapted from reference ([45])]. Twenty-five cysts per plate were then placed in a tube for acid/pepsin (170 mM sodium chloride, 60 mM hydrochloric acid, and 0.1 mg/mL pepsin) treatment for 10 minutes in a 37°C water bath. The cysts were then neutralized with 94 mM Na2CO3. The liberated bradyzoites were then equally distributed into a 12-well plate. For the growth assay, the cells were grown in the presence of compounds or DMSO for 12 and 14 days undisturbed. For the viability assays, the cells were treated with compounds or DMSO for 4 hours before being washed with 1× PBS and then grown for 12 and 14 days in media without compounds. After 12 and 14 days, the cells were fixed with 100% ethanol and stained with 2.5× crystal violet. The control DMSO plaque image is duplicated from Fig. 2B to be used as the representative image of plaques in Fig. 2A. Plaques were quantified on a light microscope using the 4× objective and the size of the plaques was measured using Fiji (ImageJ) software.

[7] = system: ex vivo bradyzoites of Me49-RFP from brains of chronically infected mice; assay: Ex vivo bradyzoite viability assay, Me49-RFP; type: cell-based, Toxoplasma gondii; conditions: inhibitors 4 hours then drug-free 14 days, 3x EC50
Protocol: as §3

[8] = system: ex vivo bradyzoites of the Pru strain from chronically infected mice; assay: Ex vivo bradyzoite growth assay, Pru; type: cell-based, Toxoplasma gondii; conditions: 3x EC50
Protocol: as §3

[9] = system: ex vivo bradyzoites of the Pru strain from chronically infected mice; assay: Ex vivo bradyzoite viability assay, Pru; type: cell-based, Toxoplasma gondii; conditions: 3x EC50
Protocol: as §3

[10] = system: Me49-RFP brain tissue cysts in CBA/j mice; type: in vivo, Toxoplasma gondii; conditions: 500 Me49-RFP i.p., 5 mg/kg/day i.p. for 16 days from 28 dpi, brains 2 weeks after treatment
Protocol: CBA/j female mice (Jackson Laboratory) were injected i.p. with a 200 µL suspension of 500 tachyzoites of the Me49-RFP strain T. gondii (type II genotype). […] At 4 weeks post-infection, the brains of two mice were collected to check for the presence of cysts and to confirm that the mice were in the chronic stage. At this time, the remaining mice were injected i.p. daily for 16 consecutive days with 200 µL solvent (10% Kolliphor HS-15) or compounds dissolved in 10% HS-15. […] Mice were euthanized humanely 2 weeks after the final injection. The mouse brains were collected in 1 mL sterile PBS, minced with scissors, and homogenized using a glass homogenizer. Four 20 µL samples (80 µL total or 8% of sample) of each brain homogenate were placed on a glass microscope slide. Cysts were enumerated using a Delta Vision fluorescence microscope.

[11] = system: Me49-RFP brain tissue cysts in Swiss Webster mice; assay: Treatment of Swiss Webster mice chronically infected with Me49-RFP; type: in vivo, Toxoplasma gondii; conditions: Swiss Webster mice, 5,000 Me49-RFP i.p.
[12] = system: Human Foreskin Fibroblasts (HFF); assay: Cytotoxicity on HFF cells (Alamar Blue); type: cell-based
Protocol: (§4) The cytotoxicity was tested using an Alamar Blue assay as described by Recher et al. ([49]).

C2C12 myoblasts = assay: Cytotoxicity on C2C12 myoblasts (Alamar Blue); type: cell-based
Protocol: as §4

[13] = system: toxoplasmosis relapse in patients; conditions: after 6 years of therapy; cited from earlier work
[14] = system: Pru-GFP brain tissue cysts in Balb/c mice; assay: Treatment of Balb/c mice chronically infected with Pru-GFP; conditions: Balb/c mice, 1,500 Pru-GFP i.p., 5 mg/kg/day i.p. for 16 days from 28 dpi
Protocol: BALB/c male mice (Jackson Laboratory) were injected i.p. with a 200 µL suspension of 1,500 tachyzoites of the Pru-GFP strain T. gondii (type II genotype) (a gift from Laura Knoll). […] At 4 weeks post-infection, the brains of two mice were collected to check for the presence of cysts and to confirm that the mice were in the chronic stage. At this time, the remaining mice were injected i.p. daily for 16 consecutive days with 200 µL solvent (10% Kolliphor HS-15) or compounds dissolved in 10% HS-15. […] Mice were euthanized humanely 2 weeks after the final injection. The mouse brains were collected in 1 mL sterile PBS, minced with scissors, and homogenized using a glass homogenizer. Four 20 µL samples (80 µL total or 8% of sample) of each brain homogenate were placed on a glass microscope slide. Cysts were enumerated using a Delta Vision fluorescence microscope.

[15] = system: hyperactivity of Balb/c mice chronically infected with Pru-GFP; assay: CageDot continuous monitoring of mouse activity during chronic infection; conditions: 5 mg/kg/day i.p. 16 days, 15 dpt and 2 wpt
Protocol: At this time, the remaining mice were injected i.p. daily for 16 consecutive days with 200 µL solvent (10% Kolliphor HS-15) or compounds dissolved in 10% HS-15. […] Mice were euthanized humanely 2 weeks after the final injection.
Mice were monitored during the infection using the CageDot ([30], [31]), which detects vibrations. […] Data are collected at a 100 Hz sampling rate (each second, 100 data points were collected).

T. gondii tachyzoites = assay: EC50 against tachyzoites indicated in Fig. 1E, used to set 3x and 5x concentrations; conditions: Toxoplasma gondii, read-out: indicated EC50 (shown in parentheses, Fig. 1E)
[16] = system: T. gondii RH strain (type I) tachyzoites; assay: In vitro growth inhibition of red fluorescent tachyzoites, RH strain; type: cell-based; conditions: Toxoplasma gondii, tachyzoite growth
Protocol: as §1

**Q.** Which EC50 [1] does the source give for O=C1C(O)=C([C@H]2CC[C@H](c3ccc(Cl)cc3)CC2)C(=O)c2ccccc21 [Atovaquone] here?
**A.** 4.17 ± 2.34 nM

**Q.** What about the EC50 [2] of the same compound?
**A.** 1.53 ± 0.229 nM

**Q.** And the EC50 (T. gondii ATQ^R R4)?
**A.** 1900 nM

**Q.** And the EC50 (T. gondii ATQ^R R5)?
**A.** 1030 ± 290 nM

**Q.** What about the vacuole size [3] of the same compound?
**A.** reduced vacuole size

**Q.** What about the vacuole size [4] of the same compound?
**A.** decreased the vacuole size

**Q.** And the “size of the vacuoles (cysts)” value [5]?
**A.** reduced the size of the vacuoles

**Q.** What about the “number of plaques, ex vivo growth” value [6] of the same compound?
**A.** effective against bradyzoite growth

**Q.** And the “number of plaques, ex vivo viability” value [7]?
**A.** only a minimal impact on viability

**Q.** What about the “number of plaques, ex vivo growth” value [8] of the same compound?
**A.** significant reduction in the number of plaques

**Q.** And the “number of plaques, ex vivo viability” value [9]?
**A.** significant reduction in the number of plaques

**Q.** And the “reduction in the number of cysts compared to the control” value [10]?
**A.** 56.6%

**Q.** What about the “reduction of cyst burden” value ([11]; ATQ at 5 mg/kg daily for 16 days) of the same compound?
**A.** 65.5%

**Q.** What about the cyst size ([11]; daily treatment 16 days) of the same compound?
**A.** reduced the size of the cysts

**Q.** And the “% Inhibition on HFF” value ([12]; 4X EC50)?
**A.** 4.69 ± 2.56%

**Q.** What about the “% Inhibition on HFF” value ([12]; 10X EC50) of the same compound?
**A.** 7.23 ± 2.29%

**Q.** What about the “% Inhibition on C2C12” value (C2C12 myoblasts; 4X EC50) of the same compound?
**A.** 2.61 ± 4.48%

**Q.** And the “% Inhibition on C2C12” value (C2C12 myoblasts; 10X EC50)?
**A.** 6.84 ± 5.34%

**Q.** What about the patients experiencing relapse [13] of the same compound?
**A.** up to 75%

**Q.** What about the “reduction of cyst burden” value [14] of the same compound?
**A.** 71.9%

**Q.** What about the “activity of infected mice (nightly average energy, CageDot)” value [15] of the same compound?
**A.** decreased the activity of the infected mice to similar levels of the control uninfected mice

**Q.** And the EC50 (T. gondii tachyzoites)?
**A.** 10 nM

**Q.** With CCc1nc(N)nc(N)c1-c1ccc(Cl)cc1 [Pyrimethamine] as the compound, how does the EC50 [16] read?
**A.** 383 ± 78 nM

**Q.** What about the EC50 ([1]; Toxoplasma gondii) of the same compound?
**A.** 43.2 ± 2.58 nM

**Q.** What about the EC50 [2] of the same compound?
**A.** 1.67 ± 0.268 nM

**Q.** What about the EC50 (T. gondii ATQ^R R4) of the same compound?
**A.** 22.1 ± 3.52 nM

**Q.** And the EC50 (T. gondii ATQ^R R5)?
**A.** 5.23 ± 0.221 nM

**Q.** What about the “% Inhibition on HFF” value ([12]; 4X EC50) of the same compound?
**A.** 0.38 ± 2.61%

**Q.** And the “% Inhibition on HFF” value ([12]; 10X EC50)?
**A.** 6.18 ± 0.98%

**Q.** And the “% Inhibition on C2C12” value (C2C12 myoblasts; 4X EC50)?
**A.** 2.39 ± 3.50%

**Q.** And the “% Inhibition on C2C12” value (C2C12 myoblasts; 10X EC50)?
**A.** 6.57 ± 1.31%
